Paper PMC6534834 (Breast Cancer Research : BCR, 2019)
Like-named read-outs stand apart in the source and are kept apart here. One block for each compound: values may come before it.

Experiments:
FGFR = settings: at the RP2D; cited from earlier work
[1] = Nintedanib (BIBF1120-BS and metabolite BIBF1202-ZW) plasma pharmacokinetics (LC-MS/MS); assay type: in vivo, human; settings: for Mean plasma concentration at steady state (day 29) compared with day 1: level 2; for Mean Cmax / Mean AUC0-last / Mean Tmax / Cmax / Tmax / AUC(0-t): nintedanib species in plasma; for Pharmacokinetic interaction: increase in plasma concentrations: nintedanib and letrozole co-administered, three- for nintedanib, twofold for letrozole (respective); for Cmax / Tmax / AUC(0-t): human, plasma, oral; for AUC(0-t): read-out: Mean AUC0-last
Cyp3A4 = settings: cited from earlier work
aromatase [2] = target: T1, aromatase (Homo sapiens, UniProt P11511); parameters: endogenous in cells; host or cells: Tissues of the trial patients (in vivo); settings: cited from earlier work; for Patients with 17-B-estradiol above the LLD: randomized 3-month crossover letrozole/anastrozole
T1 sequence (P11511 1-503): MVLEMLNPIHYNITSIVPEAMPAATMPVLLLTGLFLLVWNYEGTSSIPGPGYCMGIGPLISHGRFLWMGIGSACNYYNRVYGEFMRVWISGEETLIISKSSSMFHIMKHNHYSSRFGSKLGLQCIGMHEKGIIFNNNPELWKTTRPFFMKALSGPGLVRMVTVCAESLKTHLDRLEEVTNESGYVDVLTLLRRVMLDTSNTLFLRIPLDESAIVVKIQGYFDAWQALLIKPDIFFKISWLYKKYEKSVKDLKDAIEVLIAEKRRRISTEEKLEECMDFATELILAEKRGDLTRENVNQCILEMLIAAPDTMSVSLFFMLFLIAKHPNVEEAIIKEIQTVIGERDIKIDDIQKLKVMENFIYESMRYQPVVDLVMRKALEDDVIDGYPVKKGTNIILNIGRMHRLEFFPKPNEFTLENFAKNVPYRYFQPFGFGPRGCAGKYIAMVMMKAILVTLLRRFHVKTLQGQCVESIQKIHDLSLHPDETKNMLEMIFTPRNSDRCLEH

[3] = Letrozole plasma pharmacokinetics (UPLC-MS/MS); assay type: in vivo, human; settings: letrozole in plasma; for Cmax / AUC(0-t) / Tmax: human, plasma, oral; for AUC(0-t): read-out: Mean AUC0-last
[4] = human, in vivo
aromatase [5] = target: T1, aromatase; experiment: Plasma 17-B-estradiol level (clinical assay, LLD 5 pg/mL), pharmacodynamic marker of aromatase inhibition in patients; assay type: in vivo; parameters: endogenous in cells; host or cells: Tissues of the trial patients (in vivo)
[6] = system: tumors with FGFR gene alterations; settings: cited from earlier work
[7] = level 1 (nintedanib 150 mg/bid + letrozole […]), day 1
[8] = level 2 (nintedanib 200 mg/bid + letrozole […]), day 1

Compound: CCN1CCN(c2ccc(Nc3cc(N(C)C(=O)Nc4c(Cl)c(OC)cc(OC)c4Cl)ncn3)cc2)CC1 [BGJ398]
Increase in FGF23 concentrations (FGFR): ~ 50%

Mean plasma concentration at steady state (day 29) compared with day 1 [1]: almost twofold higher
Mean Cmax [1, 7]: 24 ng/mL
Mean AUC0-last ([1]; level 1, day 1): 200 ng·h/mL
Mean Tmax ([1]; level 1, day 1): 1.9 h
Mean AUC0-last ([1]; level 1, day 29): 367 ng·h/mL
Mean Cmax ([1]; level 1, day 29): 28 ng/mL
Mean Tmax ([1]; level 1, day 29): 1.1 h
Mean Cmax [1, 8]: 41 ng/mL
Mean AUC0-last ([1]; level 2, day 1): 413 ng·h/mL
Mean Tmax ([1]; level 2, day 1): 3.3 h
Mean AUC0-last ([1]; level 2, day 29): 824 ng·h/mL
Mean Cmax ([1]; level 2, day 29): 67 ng/mL
Mean Tmax ([1]; level 2, day 29): 3.0 h
Compound: CN1CCN(CC(=O)N(C)c2ccc(N/C(=C3\C(=O)Nc4cc(C(=O)O)ccc43)c3ccccc3)cc2)CC1 [BIBF1202-ZW]

Compound: COc1cc(OC)cc(N(CCNC(C)C)c2ccc3ncc(-c4cnn(C)c4)nc3c2)c1 [JNJ-42756493]
Increase in FGF23 concentrations (FGFR): ~ 20%

Compound: CC(C)(C#N)c1cc(Cn2cncn2)cc(C(C)(C)C#N)c1 [anastrozole]
Metabolizing enzyme (Cyp3A4): metabolized by Cyp3A4
Patients with plasma 17-B-estradiol concentrations below the LLD (aromatase [2]; n = 191): 83%
Patients with 17-B-estradiol above the LLD (aromatase [2]): 37%

Cmax ([3]; Level 1 (nintedanib 150 mg/bid + letrozole […]), day 1): 100 ng/mL
AUC(0-t) ([3]; Level 1, day 1): 2200 ng·h/mL
Cmax ([3]; Level 1, day 29): 89.4 ng/mL
Tmax ([3]; Level 1, day 29): 4 h
AUC(0-t) ([3]; Level 1, day 29): 2060 ng·h/mL
Cmax ([3]; Level 2 (nintedanib 200 mg/bid + letrozole […]), day 1): 124 ng/mL
Tmax ([3]; Level 2, day 1): 4 h
AUC(0-t) ([3]; Level 2, day 1): 2780 ng·h/mL
Cmax ([3]; Level 2, day 29): 148 ng/mL
Tmax ([3]; Level 2, day 29): 2 h
AUC(0-t) ([3]; Level 2, day 29): 3170 ng·h/mL
Mean Tmax ([3]; Level 1, day 1): 0 h
Patients with undetectable 17-B-estradiol levels (below LLD 5 pg/mL) (aromatase [5]; EOT visit, 4 weeks after ceasing nintedanib administration): 100%
Patients with undetectable 17-B-estradiol levels (below LLD 5 pg/mL) (aromatase [5]; day 1 (baseline), letrozole alone […] for at least 4 weeks): 87.5%
Compound: N#Cc1ccc(C(c2ccc(C#N)cc2)n2cncn2)cc1 [letrozole]
Pharmacokinetic interaction: increase in plasma concentrations [1]: three- and twofold increases in their respective plasma concentrations
Grade 3 toxic events attributed to letrozole [4]: No grade 3 toxic events were attributed to letrozole
Metabolizing enzyme (Cyp3A4; no reference given): metabolized by Cyp3A4
Suppression of aromatase activity (aromatase [2]; early letrozole trials): > 95%
Patients with 17-B-estradiol above the LLD (aromatase [2]): 2%

Cmax [1, 7]: 51 ng/mL
Tmax ([1]; level 1, day 1): 1.9 h
AUC(0-t) ([1]; level 1, day 1): 339 ng·h/mL
Cmax ([1]; level 1, day 29): 50 ng/mL
Tmax ([1]; level 1, day 29): 1.1 h
AUC(0-t) ([1]; level 1, day 29): 519 ng·h/mL
Cmax [1, 8]: 65 ng/mL
Tmax ([1]; level 2, day 1): 2 h
AUC(0-t) ([1]; level 2, day 1): 599 ng·h/mL
Cmax ([1]; level 2, day 29): 92 ng/mL
Tmax ([1]; level 2, day 29): 2 h
AUC(0-t) ([1]; level 2, day 29): 941 ng·h/mL
BIBF1120-BS AUC on day 29 compared with day 1 ([1]; in vivo): almost twofold higher
Mean plasma concentration at steady state (day 29) compared with day 1 [1]: almost twofold higher
BIBF1120-BS AUC on day 29 compared with steady-state values reported in phase I studies ([1]; versus nintedanib monotherapy [28], with pemetrexed [27], or paclitaxel plus carboplatin [47]): two to threefold higher
Compound: COC(=O)c1ccc2c(c1)NC(=O)/C2=C(\Nc1ccc(N(C)C(=O)CN2CCN(C)CC2)cc1)c1ccccc1 [nintedanib]
Pharmacokinetic interaction: increase in plasma concentrations [1]: three- and twofold increases in their respective plasma concentrations
Metabolizing enzyme (Cyp3A4; no reference given): metabolized by Cyp3A4

Compound: AZD4547
Disease stabilization rate ([6]; MATCH arm W, patients with FGFR amplifications): 50%
Response rate ([6]; arm W of the MATCH trial): 8%
